According to patent US20090298068A1, “METHOD AND TEST KIT FOR THE DIAGNOSIS AND/OR MAKING PREDICTIONS ABOUT AND/OR FOR THE ASSESSMENT OF THE EFFICACY OF THERAPEUTIC AGENTS FOR THE TREATMENT OF OVARIAN CANCER AND METHOD OF PLANNING A REGIMEN FOR THE TREATMENT OF OVARIAN CANCER” (priority 2006, published 2009):

Test system: TUSC3 expression in the hypermethylated MZ6 cell line
Assay: Restoration of TUSC3 expression by DNA demethylation in ovarian cancer cell lines (real time RT-PCR)
Type: cell-based, human
Settings: 72-hour treatment
Procedure: In addition, 32 ovarian cancer cell lines were studied, which were started from ovarian cancer tissue samples of 28 patients and cultivated as described (Mobus V1 Gerharz C D, Press U, et al, Morphological, immunohistochemical and biochemical characterization of 6 newly established human ovarian carcinoma cell lines. Int J Cancer. 1992; 52:76-84).
For bisulfite treatment, 1 μg genomic DNA was digested with the restriction enzymes Hind III and Xba I, precipitated, dissolved and denatured for 20 minutes in 0.35 M NaOH. Then, the DNA was treated in 8 cycles (2 hrs. 75° C. and 1 min. 95° C.) with 1.75 M sodium bisulfite, 5.23 M urea and 0.52 mM hydroquinone in a PCR cycler. Using the QIAEX II Gel Extraction Kit (Qiagen, Hilden, Germany), the DNA was cleaned and the reaction was ended with 0.32 M NaOH (20 min. 37° C.). Finally, the DNA was precipitated with 1 μl glycogen with NH4 acetate EtOH as the carrier, rinsed with 70% EtOH and dissolved in 40 μl H2O. […] The PCR products were analyzed on 3% agarose gel, stained with ethidium bromide. […] DNA demethylation of the cancer cell lines was carried out by a 72-hour treatment with 1 and 2.5 μM 5-aza-deoxycytidine (Sigma-Aldrich, St. Louis, Mo., USA) in cell culture medium, and the relative TUSC3 expression was evaluated by real time RT-PCR as described below. […]

Nc1ncn([C@H]2C[C@H](O)[C@@H](CO)O2)c(=O)n1 [5-aza-deoxycytidine]
TUSC3 expression, times greater than sham-treated samples (relative to B-2-microglobulin) (2.5 μM, MZ6 cell line, sham-treated below detection limit, mean of three experiments): at least 9.5 times | Restoration of TUSC3 expression (1 and 2.5 μM, hypermethylated MZ6 cell line, concentration-dependent): restoration of TUSC3 expression
